In paper PMC4506562 (Chemmedchem, 2014):

Biological target: T1, hsolAC (human soluble adenylate cyclase) (Homo sapiens, UniProt Q96PN6)
T1 sequence (Q96PN6 1-469): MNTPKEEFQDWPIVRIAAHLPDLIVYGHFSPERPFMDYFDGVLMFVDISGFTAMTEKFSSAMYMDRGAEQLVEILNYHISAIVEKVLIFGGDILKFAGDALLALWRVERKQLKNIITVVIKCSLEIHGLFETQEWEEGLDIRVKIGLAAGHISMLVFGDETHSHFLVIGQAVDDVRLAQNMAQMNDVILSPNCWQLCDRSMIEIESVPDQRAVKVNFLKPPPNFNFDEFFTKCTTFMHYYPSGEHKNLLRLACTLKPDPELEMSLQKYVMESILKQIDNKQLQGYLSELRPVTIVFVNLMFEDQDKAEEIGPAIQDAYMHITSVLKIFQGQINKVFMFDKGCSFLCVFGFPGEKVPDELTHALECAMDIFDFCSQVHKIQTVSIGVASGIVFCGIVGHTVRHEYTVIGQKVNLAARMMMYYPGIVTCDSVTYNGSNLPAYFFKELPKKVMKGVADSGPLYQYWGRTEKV
Test: Bridge-It cAMP fluorescence assay
Assay type: biochemical

Work on `Cc1n[nH]cc1-c1ccc(F)cc1` [compound 1, 4-(4-Fluorophenyl)-3-methyl-1H-pyrazole] yielded an IC50 greater than 1000 µM.
